This passage reports IC50 results from ChEMBL document CHEMBL1932918, “AChE inhibitor: a regio- and stereo-selective 1,3-dipolar cycloaddition for the synthesis of novel substituted 5,6-dimethoxy spiro[5.3']-oxindole-spiro-[6.3″]-2,3-dihydro-1H-inden-1″-one-7-(substituted aryl)-tetrahydro-1H-pyrrolo[1,2-c][1,3]thiazole” (Bioorg Med Chem Lett, 2012).

Molecules are shown by their SMILES.

The target in this test is Acetylcholinesterase (Electrophorus electricus, UniProt O42275). In words: Inhibition of electric eel AChE using […] measured every sec for 2 mins by Ellman's method. (DTNB colorimetry detects thiols as they appear.)
Sequence of Acetylcholinesterase (O42275 whole entry): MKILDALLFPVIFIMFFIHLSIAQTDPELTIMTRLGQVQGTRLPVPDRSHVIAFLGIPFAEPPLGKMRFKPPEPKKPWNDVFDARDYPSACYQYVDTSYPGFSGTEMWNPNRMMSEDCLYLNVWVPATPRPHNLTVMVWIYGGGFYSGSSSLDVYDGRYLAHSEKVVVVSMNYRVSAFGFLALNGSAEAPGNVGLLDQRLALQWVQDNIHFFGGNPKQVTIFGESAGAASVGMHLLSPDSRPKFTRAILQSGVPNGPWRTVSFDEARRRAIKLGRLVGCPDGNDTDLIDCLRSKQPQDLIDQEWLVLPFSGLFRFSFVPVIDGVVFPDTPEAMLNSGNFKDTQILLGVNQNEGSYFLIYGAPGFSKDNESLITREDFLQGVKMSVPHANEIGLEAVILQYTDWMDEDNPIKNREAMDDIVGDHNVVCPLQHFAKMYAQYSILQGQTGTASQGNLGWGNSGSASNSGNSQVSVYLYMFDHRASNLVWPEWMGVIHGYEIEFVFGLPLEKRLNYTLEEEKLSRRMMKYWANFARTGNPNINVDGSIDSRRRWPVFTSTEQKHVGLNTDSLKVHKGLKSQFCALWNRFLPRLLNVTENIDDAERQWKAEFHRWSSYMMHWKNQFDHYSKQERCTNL
Usually IC50 stands for the midpoint of a concentration-inhibition curve. Read a high IC50 as weaker potency. On to `COc1cc2c(cc1OC)C(=O)C1(C2)C(c2ccncc2)C2CSCN2C12C(=O)Nc1ccccc12` (stereo not given), for which the IC50 is 480 nM.

Compound `COc1cc2c(cc1OC)C(=O)C1(C2)C(c2ccccc2)C2CSCN2C12C(=O)Nc1ccccc12` (stereo not given) displayed an IC50 of 5800 nM.

In turn, `COc1cc2c(cc1OC)C(=O)C1(C2)C(c2ccncc2)C2CSCN2C12C(=O)Nc1ccc(Cl)cc12` (stereo not given) returned an IC50 of 340 nM.

As for `COc1cc2c(cc1OC)C(=O)C1(C2)C(c2ccccc2Cl)C2CSCN2C12C(=O)Nc1ccc(Cl)cc12` (stereo not given), half-maximal inhibition (IC50) required 3280 nM.

Regarding `COc1cc2c(cc1OC)C(=O)C1(C2)C(c2ccccc2Cl)C2CSCN2C12C(=O)Nc1ccccc12` (stereo not given), the IC50 was 8320 nM.

`COc1cc2c(cc1OC)C(=O)C1(C2)C(c2ccccc2)C2CSCN2C12C(=O)Nc1ccc(Cl)cc12` (stereo not given): the half-inhibitory concentration (IC50) was found to be 2600 nM.

For `COc1cc2c(cc1OC)C(=O)C1(C2)C(c2ccccc2Cl)C2CSCN2C12C(=O)Nc1ccc([N+](=O)[O-])cc12` (stereo not given), the IC50 turned out to be 2120 nM.

As for `COc1cc2c(cc1OC)C(=O)C1(C2)C(c2ccncc2)C2CSCN2C12C(=O)Nc1ccc([N+](=O)[O-])cc12` (stereo not given), the IC50 came to 110 nM.

In turn, `COc1cc2c(cc1OC)C(=O)C1(C2)C(c2ccc(F)cc2)C2CSCN2C12C(=O)Nc1ccc(Cl)cc12` (stereo not given) had an IC50 of 1560 nM.

Turning to `COc1ccc(C2C3CSCN3C3(C(=O)Nc4ccc(Cl)cc43)C23Cc2cc(OC)c(OC)cc2C3=O)cc1OC` (stereo not given), the IC50 was determined as 2240 nM.

`COc1ccc(C2C3CSCN3C3(C(=O)Nc4ccc([N+](=O)[O-])cc43)C23Cc2cc(OC)c(OC)cc2C3=O)cc1OC` (stereo not given) registered an IC50 of 2100 nM.

On to `COc1cc2c(cc1OC)C(=O)C1(C2)C(c2ccc(F)cc2)C2CSCN2C12C(=O)Nc1ccccc12` (stereo not given), for which the midpoint of inhibition, the IC50, lay at 1120 nM.

Compound `COc1ccc(C2C3CSCN3C3(C(=O)Nc4ccccc43)C23Cc2cc(OC)c(OC)cc2C3=O)cc1OC` (stereo not given) came in with an IC50 of 6200 nM.

For `COc1cc2c(cc1OC)C(=O)C1(C2)C(c2ccc(F)cc2)C2CSCN2C12C(=O)Nc1ccc([N+](=O)[O-])cc12` (stereo not given), the IC50 turned out to be 1160 nM.

`COc1cc2c(cc1OC)C(=O)C1(C2)C(c2ccccc2)C2CSCN2C12C(=O)Nc1ccc([N+](=O)[O-])cc12` (stereo not given) gave an IC50 of 3160 nM.
